Where “and” joins values, the source holds several entries; their conditions need not be identical. Equal entries are not always repeated.
Columns and labels:
Format in all cases: cell-based
CCK1R [1] = biological target: T1, CCK1R (Homo sapiens, UniProt P32238); experiment: IP-One accumulation TR-FRET assay, PAM format, HEK-293 CCK1R cells; set-up: expressed in transfected cells; host or cells: HEK-293; details: for Emax: HEK293, relative to CCK control; for Emax / CCK1R PAM (IP-One) Score (activity score = normalized Emax × pEC50) / EC50: HEK-293 CCK1R cells; for Emax / CCK1R PAM (IP-One) Score (activity score = normalized Emax × pEC50): PAM format; for Emax / EC50: average ± SD; for EC50: PAM format with EC20 CCK; for CCK1R IP-One activity (in words): PAM and agonist formats
T1 sequence (P32238 1-428): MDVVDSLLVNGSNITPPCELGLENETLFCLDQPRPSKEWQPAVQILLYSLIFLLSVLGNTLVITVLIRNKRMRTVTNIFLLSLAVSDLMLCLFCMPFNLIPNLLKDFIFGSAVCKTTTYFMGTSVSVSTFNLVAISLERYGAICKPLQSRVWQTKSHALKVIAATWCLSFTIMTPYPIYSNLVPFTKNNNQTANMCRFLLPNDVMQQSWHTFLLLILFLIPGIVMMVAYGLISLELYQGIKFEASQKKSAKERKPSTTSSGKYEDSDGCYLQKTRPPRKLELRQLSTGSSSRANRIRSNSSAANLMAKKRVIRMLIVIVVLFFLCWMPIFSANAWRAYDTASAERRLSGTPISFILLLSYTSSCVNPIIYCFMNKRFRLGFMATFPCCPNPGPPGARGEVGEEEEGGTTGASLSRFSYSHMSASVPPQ
Procedure: (§1) For structure–activity relationship studies, we performed myo-inositol-1-phosphate (IP-One) accumulation assays with TR-FRET technology applied to the HEK-293 cell line overexpressing CCK1Rs, as we had described in our high throughput screening effort. In brief, thawed cryopreserved cell stocks were re-suspended in IP-One assay media consisting of phenol-red free DMEM (Corning, Corning, NY, USA, #17-205-CV) with 10% FBS, 1% penicillin (10,000 units)/streptomycin (10 mg) (Pen/Strep, Thermo Fisher Scientific, Waltham, MA, USA, Gibco #15140122), and 1% L-glutamine (200 mM) (Gibco #25030081) and diluted to required cell densities. Then, the cell suspension was dispensed into a 1536-well tissue culture microplate (Corning, #3727), and the plate was incubated overnight at 37 °C and 5% CO^2. After 16–20 h, DMSO or compounds were added with an Echo liquid handler (Labcyte, San Jose, CA, USA), resulting in a top final compound concentration of 50 µM diluted 2-fold for 16-point dose–responses. For the positive allosteric modulator (PAM) format, orthosteric stimulator (CCK) dilutions for control wells were prepared in assay media containing 150 mM lithium chloride (LiCl, 50 mM final, Sigma-Aldrich, St Louis, MO, USA, #L7026). After a 30 min incubation of test compounds at 37 °C and 5% CO2, orthosteric stimulator dilutions (for PAM format) or equivalent dilutions of DMSO (for agonist format) were added to designated wells using BioRaptr (Beckman Coulter, Brea, CA, USA). In addition, CCK control ligand dilutions were included on each test plate. After that, the plate was incubated for 1 h at 37 °C and 5% CO^2 and equilibrated to room temperature. Detection reagents from the IP-One Gq detection kit from Cisbio (Cisbio US Inc., Bedford, MA, USA, #62IPAPEJ) were added, and after 1 h at RT, IP-One content was measured with a PHERAstar FSX microplate reader (BMG Labtech, Ortenberg, Germany). Control ligand dose–responses were analyzed using GraphPad Prism 9.3.1 (San Diego, CA, USA) to validate adequate control and test well concentrations for positive allosteric modulation (PAM) and agonist formats. Dose–response curves were performed as 16-point 2-fold dilutions in duplicates in at least three independent experiments. Large data sets were uploaded and analyzed with CBIS (Chemical and Biology Information System software, ChemInnovation Software, Inc., San Diego, CA, USA). Further data analysis for detailed SAR studies was conducted using the D360 software (Certara).
(§2) The potency and efficacy data for these compounds were used to calculate their activity scores using the following formula: Activity Score = normalized Emax × pEC50. Normalized Emax represents the efficacy of the compound as a fractional response relative to that of the CCK control ligand. pEC50 represents the positive logarithmic value of compound EC50 concentrations in (M).

[2] = biological target: T2, vasopressin-2 receptor (AVP2R) (Homo sapiens, UniProt P30518); experiment: AVP2R cAMP HTRF accumulation assay; details: for AVP2R PAM (cAMP) Score (activity score = normalized Emax × pEC50): PAM format; for Emax / EC50: PAM format with vasopressin, original hits: agonist and PAM data combined, average ± SD
T2 construct: expressed in transfected cells; host or cells: CHO-K1 (PAM format); HEK-293 (agonist format)
Procedure: Possible off-target biological effects. […] Here, we tested them at the vasopressin-2 receptor (AVP2R), representing a class A GPCR structurally related to CCK1R, which is coupled to Gs. The activity at AVP2R was tested using AVP2R-overexpressing CHO-K1 (PAM format) or HEK-293 (agonist format) cells, stimulating the cells with vasopressin. Original hits were tested in both agonist and PAM formats. Since all recognized compound responses were present in both formats, we continued to screen analogs in only the PAM format (also able to capture agonist effects) in CHO-K1 AVP2R cells for potential enhanced sensitivity. The dose–response data sets for original hits were combined, as the PAM and agonist effects were indistinguishable. In brief, arginine vasopressin (AVP) orthosteric stimulator dilutions and ligand and compound dose–response titrations in DMSO were transferred onto a 1536-well plate (Corning #3725) using an Echo liquid handler (Labcyte). Thawed cryopreserved cell stocks were diluted in stimulation buffer consisting of HBSS (Hank’s Balanced Salt Solution with Ca^2+ and Mg^2+, Gibco #24020117), 5 mM HEPES (hydroxyethyl piperazineethanesulfonic acid), 0.5 mM IBMX (3-isobutyl-1-methylxanthine, Sigma-Aldrich), and 0.075% BSA (7.5% DTPA-purified bovine serum albumin, PerkinElmer). The resulting cell suspension was added to the microplate and incubated with test compounds at room temperature for 30 min. Then, the detection reagents from the Cisbio cAMP Gs Dynamic HTRF detection kit were added. The plate was kept at room temperature for 30 min and read on a PHERAstar FSX microplate reader. Dose–response curves were performed as 16-point 2-fold dilutions in duplicate in at least two independent experiments.

CCK1R [3] = biological target: T1, CCK1R; experiment: IP-One accumulation TR-FRET assay, agonist format, HEK-293 CCK1R cells; set-up: expressed in transfected cells; host or cells: HEK-293; details: for Emax: HEK293, relative to CCK control, read-out: CCK1R Ago (IP-One) Emax
Procedure: as §1, §2

T2 sequence (P30518 whole entry): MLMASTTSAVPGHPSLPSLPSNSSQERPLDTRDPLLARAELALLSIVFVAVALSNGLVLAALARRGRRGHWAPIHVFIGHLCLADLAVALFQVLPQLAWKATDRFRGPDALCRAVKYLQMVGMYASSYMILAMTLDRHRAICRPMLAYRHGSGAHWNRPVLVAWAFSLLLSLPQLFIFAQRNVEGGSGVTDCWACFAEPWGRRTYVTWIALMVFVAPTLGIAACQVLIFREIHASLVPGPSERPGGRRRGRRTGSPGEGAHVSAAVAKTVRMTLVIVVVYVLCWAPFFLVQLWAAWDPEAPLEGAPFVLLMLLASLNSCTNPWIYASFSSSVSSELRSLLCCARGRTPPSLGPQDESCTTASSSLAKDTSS

Row | SMILES | Emax (CCK1R [1]) | CCK1R PAM (IP-One) Score (activity score = normalized Emax × pEC50) (CCK1R [1]) | EC50 (CCK1R [1]) | CCK1R IP-One activity (in words) (CCK1R [1]) | AVP2R PAM (cAMP) Score (activity score = normalized Emax × pEC50) ([2]; CHO-K1 AVP2R cells) | Emax ([2]; CHO-K1 AVP2R cells) | CCK1R Ago (IP-One) Score (activity score = normalized Emax × pEC50) (CCK1R [3]) | Emax (CCK1R [3]; average ± SD) | EC50 ([2]; CHO-K1 AVP2R cells) | EC50 (CCK1R [3]; average ± SD, read-out: CCK1R Ago (IP-One) EC50) | Emax ([2]; CHO-K1, CHO-K1 AVP2R cells)
1 | OCCN1CCN(c2ncnc3c2sc2nc(-c4ccccc4)c4c(c23)CCC4)CC1 [CMP-37] | 28 ± 9% | 1.26 | 31.7 ± 1.2 µM | loss of activities across all formats | 0 | 0% | 0 | 0% |  |  | 
2 | CN1CCN(c2ncnc3c2sc2nc(N4CCCCC4)c4c(c23)CCCC4)CC1 [CMP-31] | 35 ± 14% | 1.5 and 1.54 | 29.6 ± 1.8 µM |  | 1.26 | 24 ± 3% | 0 | 0% | 5.4 ± 1.7 µM |  | 
3 | CC(C)Cc1nc2oc3c(NCCN(C)C)ncnc3c2c2c1CCC2 [CMP-21] | 45 ± 23% | 1.9 | 23.8 ± 10.5 µM |  | 1.7 and 1.74 | 37 ± 4% | 0 |  | 22.8 ± 3.8 µM |  | 
4 | COCCNc1ncnc2c1sc1nc(N3CCOCC3)c3c(c12)CCCC3 [CMP-47] | 0% | 0 |  | None of these analogs showed any CCK1R activity | 0 | 0% | 0 | 0% |  |  | 
5 | CCCc1nc2oc3c(NCCCN(CC)CC)ncnc3c2c2c1CCCC2 [CMP-36] | 25 ± 10% | 1.32 | 3.3 ± 5.4 µM |  | 1.41 | 27 ± 20% | 0 |  | 6.1 ± 2.8 µM |  | 
6 | CCN(CC)CCNc1ncnc2c1oc1nc(CC(C)C)c3c(c12)CCC3 [CMP-33] | 35 ± 19% | 1.51 | 18.8 ± 7.7 µM |  | 1.60 | 34 ± 1% | 0 |  | 21 ± 6.5 µM |  | 
7 | C/C(Br)=C\CSc1ncnc2c1sc1nc(N3CCOCC3)c3c(c12)CCCC3 [CMP-44] | 0% | 0 |  | displayed no effects | 0 | 0% | 0 | 0% |  |  | 
8 | CN(C)CCCNc1nnnc2c1sc1nc(N3CCCCC3)c3c(c12)CCCC3 [CMP-23] | 38 ± 13% | 1.86 | 9.6 ± 3.6 µM |  | 2.9 and 2.93 | 53 ± 3% | 1.85 | 41 ± 1% | 3.1 ± 1.3 µM | 30 ± 4.9 µM | 
9 | OCCNc1ncnc2c1sc1nc(N3CCOCC3)c3c(c12)CCCC3 [CMP-49] | 0% | 0 |  | None of these analogs showed any CCK1R activity | 0 |  | 0 | 0% |  |  | 0%
10 | c1ccc(CCNc2ncnc3c2sc2nc(N4CCOCC4)c4c(c23)CCCC4)cc1 [CMP-42] | 0% | 0 |  | None of these analogs showed any CCK1R activity | 0 | 0% | 0 | 0% |  |  | 
11 | CCN(CC)CCNc1ncnc2c1sc1nc(N3CCCCC3)c3c(c12)CCCC3 [CMP-6] | 57 ± 27% | 2.6 and 2.58 | 13.8 ± 3.2 µM |  | 1.7 and 1.67 | 33 ± 1% | 0 | 0% | 9.9 ± 0.5 µM |  | 

Further lines, with some results ahead:

Row | Emax (CCK1R [1]) | CCK1R PAM (IP-One) Score (activity score = normalized Emax × pEC50) (CCK1R [1]) | EC50 (CCK1R [1]) | CCK1R IP-One activity (in words) (CCK1R [1]) | AVP2R PAM (cAMP) Score (activity score = normalized Emax × pEC50) ([2]; CHO-K1 AVP2R cells) | Emax ([2]; CHO-K1 AVP2R cells) | CCK1R Ago (IP-One) Score (activity score = normalized Emax × pEC50) (CCK1R [3]) | Emax (CCK1R [3]; average ± SD) | EC50 ([2]; CHO-K1 AVP2R cells) | EC50 (CCK1R [3]; average ± SD, read-out: CCK1R Ago (IP-One) EC50) | SMILES | Emax ([2]; CHO-K1, CHO-K1 AVP2R cells)
12 | 0% | 0 |  |  | 2.95 | 61 ± 12% | 0 | 0% | 15.3 ± 9.8 µM |  | CCCc1nc2oc3c(NN)ncnc3c2c2c1CCCC2 [CMP-53] | 
13 | 0% | 0 |  | significantly diminished responses | 0 | 0% | 0 | 0% |  |  | NNc1ncnc2c1sc1nc(N3CCOCC3)c3c(c12)CCCC3 [CMP-51] | 
14 | 0% | 0 |  | displayed no effects | 1.46 | 33 ± 13% | 0 | 0% | 37.9 ± 7 µM |  | O=C(O)CSc1ncnc2c1sc1nc(N3CCOCC3)c3c(c12)CCCC3 [CMP-45] | 
15 |  |  |  | significantly diminished responses | 0 | 0% | 0 | 0% |  |  | c1nc(N2CCCC2)c2sc3nc(N4CCOCC4)c4c(c3c2n1)CCCC4 [CMP-64] | 

Reference: publication PMC9964746, “Mechanism of Action and Structure–Activity Relationships of Tetracyclic Small Molecules Acting as Universal Positive Allosteric Modulators of the Cholecystokinin Receptor” (Membranes, 2023)
